Laboratory results taken from patent publication US20130072474A1, “TREATMENT OF DEMENTIA OF ALZHEIMER'S TYPE WITH MASITINIB” (AB SCIENCE, priority 2010, published 2013).

System: patients suffering from mild to moderate dementia of Alzheimer's type
Test: Phase 2 study, CDR
Type: in vivo, human
Settings: for CDR No change, rate of patients / CDR Response (Decrease >0), rate of patients / CDR Worsening (Increase >0), rate of patients / CDR score 0, rate of patients / CDR score 0.5, rate of patients / CDR score 1, rate of patients / CDR score 2, rate of patients / CDR score 3, rate of patients: ITT population, Observed Cases
Excerpt: A multicenter, randomized, double-blind, placebo-controlled, parallel-group phase 2 study evaluating the activity of masitinib given orally for 24 weeks has been performed in patients suffering from mild to moderate dementia of Alzheimer's type (protocol period completed, extension ongoing).
Patients: Patients enrolled in this study had dementia of Alzheimer's type (according to DSM IV criteria), probable Alzheimer's disease according to NINCDS-ADRDA criteria, MMSE≧12 and ≦26, and CDR of 1 or 2. […] Exclusion criteria included inadequate organ function (defined via blood test levels), dementia due to any other causes, uncontrolled depression, psychosis, delusions or delirium.
Treatment: In addition to a stable dose of acetylcholinesterase inhibitors and/or memantine, patients received masitinib or placebo, supplied as 100 and 200 mg tablets, per os for 24 weeks. Patients received masitinib or placebo initially at a daily total dose of 3 mg/kg or 6 mg/kg, administered twice daily with meals. Dose could be increased or decreased by 1.5 mg/kg/day depending on efficacy and toxicity assessments. Five patients were allocated to each masitinib dose for every three placebo patients. Treatment with any registered or putative cognitive enhancer or disease modifier (other than donepezil, galantamine, rivastigmine or memantine), or any investigational therapies was not allowed.
CDR: The CDR is a five-point categorical rating evaluating severity of dementia. The 5-point score is useful for globally staging the level of impairment: 0=No impairment, 0.5, 1, 2, and 3 indicate very mild, mild, moderate and severe dementia respectively, in the following six areas: memory, orientation, judgment, community affairs, home and hobbies, and personal care (Morris J C, 1997).
Statistical analyses: Efficacy was analyzed in the intent-to-treat (ITT) (all randomized patients, according to group of randomization) and per protocol (PP) (all patients without a major protocol deviation) populations. […] Efficacy criteria were analyzed using descriptive statistics, numbers and rates for categorical and discontinuous variables, parametric and non-parametric distribution elements for continuous variables.
Results are presented for the ITT population in the OC dataset (with LOCF for Centre #21 at Week 24).
The overall CDR score, calculated through the use of an algorithm, is useful for characterizing and tracking a patient's level of impairment/dementia: 0=Normal, 0.5=Very Mild Dementia, 1=Mild Dementia, 2=Moderate Dementia, 3=Severe Dementia.

SMILES: Cc1ccc(NC(=O)c2ccc(CN3CCN(C)CC3)cc2)cc1Nc1nc(-c2cccnc2)cs1 [masitinib, 4-(4-methylpiperazin-1-ylmethyl)-N-[4-methyl-3-(4-pyridin-3ylthiazol-2-ylamino)phenyl]benzamide]
- CDR No change, rate of patients (W 4): 9 (90.0%)
- CDR Response (Decrease >0), rate of patients (W 4): 0 (0.0%)
- CDR Worsening (Increase >0), rate of patients (W 4): 1 (10.0%)
- CDR score 0, rate of patients (W 4): 0 (0.0%)
- CDR score 0.5, rate of patients (W 4): 0 (0.0%)
- CDR score 1, rate of patients (W 4): 7 (70.0%)
- CDR score 2, rate of patients (W 4): 3 (30.0%)
- CDR score 3, rate of patients (W 4): 0 (0.0%)
- CDR No change, rate of patients (W 8): 7 (87.5%)
- CDR Response (Decrease >0), rate of patients (W 8): 0 (0.0%)
- CDR Worsening (Increase >0), rate of patients (W 8): 1 (12.5%)
- CDR score 0, rate of patients (W 8): 0 (0.0%)
- CDR score 0.5, rate of patients (W 8): 0 (0.0%)
- CDR score 1, rate of patients (W 8): 6 (75.0%)
- CDR score 2, rate of patients (W 8): 2 (25.0%)
- CDR score 3, rate of patients (W 8): 0 (0.0%)
- CDR No change, rate of patients (W 12): 14 (82.4%)
- CDR Response (Decrease >0), rate of patients (W 12): 2 (11.8%)
- CDR Worsening (Increase >0), rate of patients (W 12): 1 (5.9%)
- CDR score 0, rate of patients (W 12): 0 (0.0%)
- CDR score 0.5, rate of patients (W 12): 1 (5.9%)
- CDR score 1, rate of patients (W 12): 15 (88.2%)
- CDR score 2, rate of patients (W 12): 1 (5.9%)
- CDR score 3, rate of patients (W 12): 0 (0.0%)
- CDR No change, rate of patients (W 24): 6 (66.7%)
- CDR Response (Decrease >0), rate of patients (W 24): 2 (22.2%)
- CDR Worsening (Increase >0), rate of patients (W 24): 1 (11.1%)
- CDR score 0, rate of patients (W 24): 0 (0.0%)
- CDR score 0.5, rate of patients (W 24): 2 (22.2%)
- CDR score 1, rate of patients (W 24): 6 (66.7%)
- CDR score 2, rate of patients (W 24): 1 (11.1%)
- CDR score 3, rate of patients (W 24): 0 (0.0%)
- CDR No change, rate of patients (W 24 LOCF center 21): 12 (75.0%)
- CDR Response (Decrease >0), rate of patients (W 24 LOCF center 21): 3 (18.8%)
- CDR Worsening (Increase >0), rate of patients (W 24 LOCF center 21): 6.3%
- CDR score 0, rate of patients (W 24 LOCF center 21): 0 (0.0%)
- CDR score 0.5, rate of patients (W 24 LOCF center 21): 2 (12.5%)
- CDR score 1, rate of patients (W 24 LOCF center 21): 13 (81.3%)
- CDR score 2, rate of patients (W 24 LOCF center 21): 1 (6.3%)
- CDR score 3, rate of patients (W 24 LOCF center 21): 0 (0.0%)
- CDR Worsening (Increase >0), rate of patients (W 24 LOCF center 21, listed as AB1010): 1 (6.3%)
- Frequency of patients with CDR Score 0.5-1 (Week 24): 94%
